Test results: paper PMC8743659, “C1632 suppresses the migration and proliferation of non‐small‐cell lung cancer cells involving LIN28 and FGFR1 pathway” (Journal of Cellular and Molecular Medicine, 2021)
Read-outs that look alike come from different tables or passages of the source.

What was measured:
[1] = Pharmacokinetic study, plasma by UHPLC-MS/MS; type: in vivo, Sprague-Dawley (SD) rats; conditions: for MRT last: read-out: MRT(0-t); for half-life: read-out: t1/2z (converted)
Procedure: (§1) Agilent 1290 UHPLC system and 6420 series Triple‐Quadrupole Tandem Mass Spectrometer (Agilent Corporation) maintained at 35°C with a ZORBAX Eclipse Plus C18 column (1.8 μm, 2.1 × 50 mm). The mobile phase was a gradient elution program consisting of solvent A with solvent B at a flow rate of 0.4 ml/min. Mobile phase A was 0.1% formic acid in water (v/v), and mobile phase B was acetonitrile. The optimal gradient elution program was as follows: 0–0.5 min, linear from 80% to 5% A; 0.5–1.5 min, 5% A; 1.5–1.6 min, linear from 5% to 80% A. The post‐time was 1.3 min for equilibration of the column and the total runtime was 1.8 min. The mass spectrometer was acquired in an ESI‐positive mode with multiple reaction monitoring (MRM). Instrument control and data acquisition were performed on the MassHunter Agilent Software (version B.07.00).
(§2) The desolation gas (nitrogen) flow was set to 10 L/h: the capillary voltage: 4000 V; nebulizing gas and drying gas (both nitrogen): 45 psi and 350°C, respectively. The MRM mode with m/z 282.2→76.9 for C1632 and m/z 282.1→194.0 for IS was used for quantitative analysis.
Male SD rats were starved for 12 h before the experiment. But, tap water was available ad libitum. C1632 was administered orally or intravenously at the dose of 20 mg/kg (p.o.), 4 mg/kg (i.v.), respectively (n = 6). Blood samples were collected into heparinized polythene tubes 0.083, 0.25, 0.5, 1, 2, 4, 6, 9, 12, 24 h after dosing. As followed, the samples were centrifuged at 14,954 g for 10 min. Add acetonitrile (400 µl) and IS (20 µl) into collected plasma samples (100 µl). Thereafter, the samples were vortexed for 2 min, followed by centrifugation at 14,954 g for 10 min. Remove the supernatants to 1.5 ml tube and the sample is ready for detection by established UHPLC‐MS/MS assay. The injection volume is 6 µl. The pharmacokinetic parameters were determined using DAS software (Version 3.0).

[2] = Tissue distribution study; type: in vivo, mice; conditions: mouse, 20 mg/kg
Procedure: as §1, §2
Twenty‐four mice were randomly divided into four groups (six mice for each group, one group for each time point) and received 20 mg/kg […] of C1632 by oral administration. The mice were euthanized by decapitation at 0 (blank group), 0.25, 2 and 6 h after C1632 was given. Tissues were collected and washed with normal saline, then homogenized and subjected to sample preparation. Subsequently, the concentration of C1632 was determined by UHPLC‐MS/MS.

[3] = male, Sprague-Dawley, iv, rat plasma, i.v. 4 mg/kg
[4] = male, Sprague-Dawley, po, rat plasma, p.o. 20 mg/kg

Q: What does the source list for `CC(=O)N(C)c1cccc(-c2ccc3nnc(C)n3n2)c1` [C1632]?
A: AUC(0-t) [1, 3]: 4090 ± 1630 ng·h/mL; Cmax [1, 3]: 2070 ± 338 ng/mL; Tmax [1, 3]: 0.53 ± 0.74 h; MRT last [1, 3]: 1.57 ± 0.74 h; half-life [1, 3]: 1.14 ± 0.52 h; AUC(0-t) [1, 4]: 9100 ± 3830 ng·h/mL; Cmax [1, 4]: 4240 ± 2680 ng/mL; Tmax [1, 4]: 1.04 ± 0.78 h; CL/F ([1]; male, Sprague-Dawley, po, rat plasma, p.o. 20 mg/kg, read-out: CLz/F (converted)): 46.2 mL/min/kg; MRT last [1, 4]: 1.88 ± 0.42 h; Vd/F ([1]; male, Sprague-Dawley, po, rat plasma, p.o. 20 mg/kg, read-out: Vz/F): 4.54 ± 4.68 L/kg; half-life [1, 4]: 1.05 ± 0.6 h; bioavailability ([1]; male, Sprague-Dawley, rat, plasma, oral, 20 mg/kg, rats, p.o. 20 mg/kg vs i.v. 4 mg/kg, read-out: F (bioavailability)): 44.5%; time of second peak of the plasma concentration-time curve ([1]; oral administration group, 20 mg/kg): 1 h; CLz/F ([1]; rat plasma, i.v. 4 mg/kg): 18.8 ± 8.5 mL/min/kg; Vz/F ([1]; rat plasma, i.v. 4 mg/kg): 2.05 ± 1.66 L/kg; level of C1632 in the brain [2]: remained low; tissues with the highest level of C1632 ([2]; 0.25 h, followed by kidney, heart and spleen): highest in the lung and liver; Tmax ([2]; tissues (major organs), homogenized, oral administration, sampled at 0.25, 2 and 6 h, read-out: time of peak concentration in major organs): 0.25 h
